Data: publication PMC3890260 (Chemical science (Royal Society of Chemistry : 2010), 2013)
pEC50: −log10 of the molar value.

Columns and labels:
[1] = target: T1, V. cholerae CqsS receptor (Vibrio cholerae serotype O1, UniProt Q9KM66); settings: cited from earlier work
[2] = target: T1, V. cholerae CqsS receptor; test: CqsS agonist bioassay; format: cell-based

T1 sequence (Q9KM66 whole entry, looked up): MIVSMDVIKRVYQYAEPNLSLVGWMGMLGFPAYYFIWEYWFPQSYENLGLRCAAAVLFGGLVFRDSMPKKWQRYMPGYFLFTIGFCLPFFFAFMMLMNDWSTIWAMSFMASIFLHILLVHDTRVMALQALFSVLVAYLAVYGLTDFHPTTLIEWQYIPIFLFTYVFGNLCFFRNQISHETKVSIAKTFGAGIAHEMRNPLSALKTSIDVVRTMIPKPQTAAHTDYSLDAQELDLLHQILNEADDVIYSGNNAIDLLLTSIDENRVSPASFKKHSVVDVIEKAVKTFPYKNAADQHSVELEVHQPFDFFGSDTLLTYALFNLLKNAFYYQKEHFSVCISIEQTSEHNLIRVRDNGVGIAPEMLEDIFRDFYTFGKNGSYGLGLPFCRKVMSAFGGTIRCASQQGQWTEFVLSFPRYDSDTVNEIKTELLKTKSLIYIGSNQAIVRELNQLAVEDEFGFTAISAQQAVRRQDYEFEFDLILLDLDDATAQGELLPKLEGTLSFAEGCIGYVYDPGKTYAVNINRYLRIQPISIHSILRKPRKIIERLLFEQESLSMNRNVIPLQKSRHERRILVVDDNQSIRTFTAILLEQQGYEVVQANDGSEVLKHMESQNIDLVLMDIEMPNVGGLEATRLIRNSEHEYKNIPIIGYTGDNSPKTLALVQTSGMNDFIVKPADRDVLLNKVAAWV

**Q.** For C/C=C(\N)C(=O)CCCCCCCCC [Ea-CAI-1], which “potency as CqsS agonist compared to CAI-1” value [1] is on record?
**A.** Its value is “an order of magnitude more potent”.

**Q.** What about the pEC50 ([2]; CqsS agonist bioassay, mean of triplicate analyses) of the same compound?
**A.** Its pEC50 is 8.39.

**Q.** And the “% Response (percent maximal bioluminescence with respect to Ea-CAI-1)” value ([2]; Ea-CAI-1 set at 100%)?
**A.** Its value is 100%.
